# Structures can show the parent of a compound that is named as a salt.
# Legend:
# [1] = test system: Streptococcus entericus (DSZM-Nr. 14446); test: Agar diffusion assay; format: cell-based; conditions: S. entericus, GI = growth inhibition, read-out: diameter of zones of total inhibition
# Method: (§1) The resulting compounds and known compounds, 1-undecylpiperidine (7) and 1-decylpiperazine (8a), as well as 1-methyl-4-undecylpiperazine (8b) (prepared in the same way), were tested in an agar diffusion assay against Gram-positive (Staphylococcus equorum (DSMZ-Nr. 20675), Streptococcus entericus (DSZM-Nr. 14446)) and Gram-negative bacteria (Escherichia coli (DSMZ-Nr. 426), Pseudomonas marginalis (DSMZ-Nr. 7527)), as well as the fungi Yarrowia lipolytica (DSMZ-Nr. 1345), Candida glabrata (DSMZ-Nr.11226), Aspergillus niger (DSMZ-Nr. 1988), and Hyphopichia burtonii (DSMZ-Nr. 70663) (Table 1).
# [2] = test system: Yarrowia lipolytica (DSMZ-Nr. 1345); test: Agar diffusion assay; format: cell-based; conditions: Y. lipolytica, GI = growth inhibition, read-out: diameter of zones of total inhibition
# Method: as §1
# [3] = test system: Pseudomonas marginalis (DSMZ-Nr. 7527); test: Agar diffusion assay; format: cell-based; conditions: P. marginalis, GI = growth inhibition, read-out: diameter of zones of total inhibition
# Method: as §1
# [4] = test system: Staphylococcus equorum (DSMZ-Nr. 20675); test: Agar diffusion assay; format: cell-based; conditions: read-out: diameter of zones of total inhibition
# Method: as §1
# [5] = test system: Escherichia coli (DSMZ-Nr. 426); test: Agar diffusion assay; format: cell-based; conditions: E. coli, GI = growth inhibition, read-out: diameter of zones of total inhibition
# Method: as §1
# [6] = test system: Aspergillus niger (DSMZ-Nr. 1988); test: Agar diffusion assay; format: cell-based; conditions: A. niger, GI = growth inhibition, read-out: diameter of zones of total inhibition
# Method: as §1
# [7] = test system: Candida glabrata (DSMZ-Nr.11226); test: Agar diffusion assay; format: cell-based; conditions: Nakaseomyces glabratus, C. glabrata, GI = growth inhibition, read-out: diameter of zones of total inhibition
# Method: as §1
# [8] = test system: Hyphopichia burtonii (DSMZ-Nr. 70663); test: Agar diffusion assay; format: cell-based; conditions: H. burtonii, GI = growth inhibition, read-out: diameter of zones of total inhibition
# Method: as §1
# [9] = test system: human leukemia cell line (HL 60); test: MTT test (cytotoxicity); format: cell-based; conditions: HL 60 cell line, arithmetic average of three determinations
# Method: The cytotoxicity of the compounds 3a–d, 5a–d, and 8b was determined in an MTT test against a human leukemia cell line (HL 60).
# Saccharomyces cerevisiae = test: Microdilution assay (MIC); format: cell-based; conditions: hydrochlorides used, arithmetic average of two determinations, read-out: Minimal inhibitory concentration (MIC)
# Method: (§2) For comparison, the N-undecylperhydroisoquinoline (C) was also tested here. For solubility reasons, the hydrochlorides were used in this assay (Table 2).
# Candida glabrata = test: Microdilution assay (MIC); format: cell-based; conditions: Nakaseomyces glabratus, hydrochlorides used, arithmetic average of two determinations, read-out: Minimal inhibitory concentration (MIC)
# Method: as §2
# Yarrowia lipolytica = test: Microdilution assay (MIC); format: cell-based; conditions: hydrochlorides used, arithmetic average of two determinations, read-out: Minimal inhibitory concentration (MIC)
# Method: as §2
SMILES,melting point,zone of inhibition at 50 µg/disc [1],zone of inhibition at 50 µg/disc [2],zone of inhibition at 50 µg/disc [3],zone of inhibition at 50 µg/disc [4],zone of inhibition at 50 µg/disc [5],zone of inhibition at 50 µg/disc [6],zone of inhibition at 50 µg/disc [7],zone of inhibition at 50 µg/disc [8],IC50 [9],MIC (Saccharomyces cerevisiae),MIC (Candida glabrata),MIC (Yarrowia lipolytica)
"CCCCCCCCCN1CCC[C@@H]2CCCC[C@H]21 (racemic) (as salt: hydrochloride) [Compound 5a, (±)-trans-1-Nonyldecahydroquinoline hydrochloride]",130 °C,,,,,,,,,,,,
"CCCCCCCCCCN1CCC[C@@H]2CCCC[C@H]21 (racemic) (as salt: hydrochloride) [Compound 5b, (±)-trans-1-Decyldecahydroquinoline hydrochloride]",128 °C,,,,,,,,,,,,
"CCCCCCCCCCCN1CCC[C@@H]2CCCC[C@H]21 (racemic) (as salt: hydrochloride) [Compound 5c, (±)-trans-1-Undecyldecahydroquinoline hydrochloride]",119 °C,,,,,,,,,,,,
"CCCCCCCCCCCCN1CCC[C@@H]2CCCC[C@H]21 (racemic) (as salt: hydrochloride) [Compound 5d, (±)-trans-1-Dodecyldecahydroquinoline hydrochloride]",113 °C,,,,,,,,,,,,
"CCCCCCCCCN1CCC[C@@H]2CCCC[C@H]21 (racemic) [Compound 4a, (±)-trans-1-Nonyldecahydroquinoline]",,20 mm,15 mm,13 mm,10 mm,0 mm,7 mm,14 mm,12 mm,,,,
"CCCCCCCCCCN1CCC[C@@H]2CCCC[C@H]21 (racemic) [Compound 4b, (±)-trans-1-Decyldecahydroquinoline]",,22 mm,19 mm,15 mm,13 mm,0 mm,12 mm,16 mm,20 mm,,,,
"CCCCCCCCCCCN1CCC[C@@H]2CCCC[C@H]21 (racemic) [Compound 4c, (±)-trans-1-Undecyldecahydroquinoline]",,20 mm,13 mm,11 mm,12 mm,0 mm,14 mm,13 mm,13 mm,,,,
"CCCCCCCCCCCCN1CCC[C@@H]2CCCC[C@H]21 (racemic) [Compound 4d, (±)-trans-1-Dodecyldecahydroquinoline]",,12 mm,9 mm,14 mm,9 mm,0 mm,,9 mm,11 mm,,,,
"CCCCCCCCCN1CCC[C@@H]2CCCC[C@H]21 (racemic) [Compound 5a, (±)-trans-1-Nonyldecahydroquinoline hydrochloride]",,,,,,,,,,22 µM,2.5 µg/mL,50 µg/mL,7.5 µg/mL
"CCCCCCCCCCN1CCC[C@@H]2CCCC[C@H]21 (racemic) [Compound 5b, (±)-trans-1-Decyldecahydroquinoline hydrochloride]",,,,,,,,,,7 µM,1 µg/mL,37.5 µg/mL,2.5 µg/mL
"CCCCCCCCCCCCN1CCC[C@@H]2CCCC[C@H]21 (racemic) [Compound 5d, (±)-trans-1-Dodecyldecahydroquinoline hydrochloride]",,,,,,,,,,6 µM,2.5 µg/mL,5 µg/mL,2.5 µg/mL
"CCCCCCCCCN1CCCc2ccccc21 [Compound 2a, 1-Nonyl-1,2,3,4-tetrahydroquinoline]",,0 mm,0 mm,0 mm,0 mm,0 mm,0 mm,0 mm,0 mm,,,,
"CCCCCCCCCCN1CCCc2ccccc21 [Compound 2b, 1-Decyl-1,2,3,4-tetrahydroquinoline]",,0 mm,0 mm,0 mm,0 mm,0 mm,0 mm,0 mm,0 mm,,,,
"CCCCCCCCCCCN1CCCc2ccccc21 [Compound 2c, 1-Undecyl-1,2,3,4-tetrahydroquinoline]",,0 mm,0 mm,0 mm,0 mm,0 mm,0 mm,0 mm,0 mm,,,,
"CCCCCCCCCCCCN1CCCc2ccccc21 [Compound 2d, 1-Dodecyl-1,2,3,4-tetrahydroquinoline]",,0 mm,0 mm,0 mm,0 mm,0 mm,0 mm,0 mm,0 mm,,,,
"CCCCCCCCCN1CCCc2ccccc21.Cl [Compound 3a, 1-Nonyl-1,2,3,4-tetrahydroquinoline hydrochloride]",65 °C,,,,,,,,,19 µM,,,
"CCCCCCCCCCN1CCCc2ccccc21.Cl [Compound 3b, 1-Decyl-1,2,3,4-tetrahydroquinoline hydrochloride]",61 °C,,,,,,,,,60 µM,,,
"CCCCCCCCCCCN1CCCc2ccccc21.Cl [Compound 3c, 1-Undecyl-1,2,3,4-tetrahydroquinoline hydrochloride]",52 °C,,,,,,,,,16 µM,,,
"CCCCCCCCCCCCN1CCCc2ccccc21.Cl [Compound 3d, 1-Dodecyl-1,2,3,4-tetrahydroquinoline hydrochloride]",49 °C,,,,,,,,,15 µM,,,
"CCCCCCCCCCCC(=O)N1CCCc2ccccc21 [Compound 6, N-Dodecanoyl-1,2,3,4-tetrahydroquinoline]",37 °C,0 mm,0 mm,0 mm,0 mm,0 mm,0 mm,0 mm,0 mm,,,,
"CCCCCCCCCCN1CCNCC1 [Compound 8a, 1-decylpiperazine, reference compound]",,17 mm,22 mm,8 mm,13 mm,7 mm,20 mm,8 mm,25 mm,,5 µg/mL,45 µg/mL,10 µg/mL
"CCCCCCCCCCCN1CCN(C)CC1 [Compound 8b, 1-methyl-4-undecylpiperazine, reference compound]",,15 mm,25 mm,15 mm,18 mm,10 mm,12 mm,11 mm,14 mm,46 µM,50 µg/mL,25 µg/mL,10 µg/mL
"CN(C/C=C/C#CC(C)(C)C)Cc1cccc2ccccc12 [terbinafine, reference compound]",,,12 mm,,,,26 mm,0 mm,15 mm,,,,
"CN(C)[C@@H]1C(O)=C(C(N)=O)C(=O)[C@@]2(O)C(O)=C3C(=O)c4c(O)cccc4[C@@](C)(O)[C@H]3C[C@@H]12 [tetracycline, reference compound]",,10 mm,0 mm,12 mm,30 mm,26 mm,0 mm,0 mm,0 mm,,,,

# From article PMC4727778, “Synthesis and Antifungal Evaluation of Novel N-Alkyl Tetra- and Perhydroquinoline Derivatives” (Scientia Pharmaceutica, 2014)
